Reference: ChEMBL document CHEMBL1201862, “PubChem BioAssay data set” (2004)
Active and inactive are the calls of the source.

Assays:
Aurora kinase A = Aurora kinase A (Homo sapiens, UniProt O14965); format: functional;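 further: value from the Navigating the Kinome kinase panel profiling, panel entry STK6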
Aurora kinase B = Aurora kinase B (Homo sapiens, UniProt Q96GD4); format: functional
[1] = target: Vascular endothelial growth factor receptor 2 (Homo sapiens, UniProt P35968); format: functional
Chain of Vascular endothelial growth factor receptor 2 (P35968 whole entry): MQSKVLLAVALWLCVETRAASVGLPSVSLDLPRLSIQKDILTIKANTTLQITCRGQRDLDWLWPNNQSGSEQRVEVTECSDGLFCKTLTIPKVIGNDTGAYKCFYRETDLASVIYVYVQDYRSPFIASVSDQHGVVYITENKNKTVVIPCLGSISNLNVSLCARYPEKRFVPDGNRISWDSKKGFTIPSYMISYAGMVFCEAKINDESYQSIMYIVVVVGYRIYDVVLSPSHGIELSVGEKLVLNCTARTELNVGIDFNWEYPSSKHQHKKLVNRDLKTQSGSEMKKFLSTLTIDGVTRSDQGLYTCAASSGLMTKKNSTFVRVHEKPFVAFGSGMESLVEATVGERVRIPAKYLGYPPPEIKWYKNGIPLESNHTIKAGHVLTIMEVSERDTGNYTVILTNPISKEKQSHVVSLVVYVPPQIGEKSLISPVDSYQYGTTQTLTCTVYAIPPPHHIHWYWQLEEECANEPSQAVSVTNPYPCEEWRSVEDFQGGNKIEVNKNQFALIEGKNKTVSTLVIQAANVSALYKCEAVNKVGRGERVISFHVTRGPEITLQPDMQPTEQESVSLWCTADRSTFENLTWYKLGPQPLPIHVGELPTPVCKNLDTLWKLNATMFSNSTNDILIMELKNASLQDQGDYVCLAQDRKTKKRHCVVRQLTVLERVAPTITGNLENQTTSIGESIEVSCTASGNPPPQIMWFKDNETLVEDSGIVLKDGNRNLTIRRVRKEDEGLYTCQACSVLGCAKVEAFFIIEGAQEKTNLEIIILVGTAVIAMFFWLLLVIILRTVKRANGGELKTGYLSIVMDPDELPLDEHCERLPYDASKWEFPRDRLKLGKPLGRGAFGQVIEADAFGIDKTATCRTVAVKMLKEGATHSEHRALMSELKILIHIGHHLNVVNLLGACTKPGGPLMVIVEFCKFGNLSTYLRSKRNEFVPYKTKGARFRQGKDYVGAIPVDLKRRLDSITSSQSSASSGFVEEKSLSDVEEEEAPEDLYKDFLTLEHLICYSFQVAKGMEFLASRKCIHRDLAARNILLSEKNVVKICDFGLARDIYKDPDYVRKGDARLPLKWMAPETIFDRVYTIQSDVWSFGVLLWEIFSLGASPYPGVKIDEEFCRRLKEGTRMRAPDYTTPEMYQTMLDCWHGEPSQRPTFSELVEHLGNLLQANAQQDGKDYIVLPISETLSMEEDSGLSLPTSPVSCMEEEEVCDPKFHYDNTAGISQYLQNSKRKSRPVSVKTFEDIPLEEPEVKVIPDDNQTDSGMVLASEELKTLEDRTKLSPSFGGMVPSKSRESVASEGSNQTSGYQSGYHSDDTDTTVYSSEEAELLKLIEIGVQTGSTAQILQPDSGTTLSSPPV

[2] = target: Cyclin-dependent kinase 19 (Homo sapiens, UniProt Q9BWU1); experiment: Navigating the Kinome. Panel member name: CDC2L6; format: functional
[3] = target: Macrophage colony-stimulating factor 1 receptor (Homo sapiens, UniProt P07333); format: functional;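 further: value comes from the Navigating the Kinome screening panel, CSF1R member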
Chain of Macrophage colony-stimulating factor 1 receptor (P07333 whole entry): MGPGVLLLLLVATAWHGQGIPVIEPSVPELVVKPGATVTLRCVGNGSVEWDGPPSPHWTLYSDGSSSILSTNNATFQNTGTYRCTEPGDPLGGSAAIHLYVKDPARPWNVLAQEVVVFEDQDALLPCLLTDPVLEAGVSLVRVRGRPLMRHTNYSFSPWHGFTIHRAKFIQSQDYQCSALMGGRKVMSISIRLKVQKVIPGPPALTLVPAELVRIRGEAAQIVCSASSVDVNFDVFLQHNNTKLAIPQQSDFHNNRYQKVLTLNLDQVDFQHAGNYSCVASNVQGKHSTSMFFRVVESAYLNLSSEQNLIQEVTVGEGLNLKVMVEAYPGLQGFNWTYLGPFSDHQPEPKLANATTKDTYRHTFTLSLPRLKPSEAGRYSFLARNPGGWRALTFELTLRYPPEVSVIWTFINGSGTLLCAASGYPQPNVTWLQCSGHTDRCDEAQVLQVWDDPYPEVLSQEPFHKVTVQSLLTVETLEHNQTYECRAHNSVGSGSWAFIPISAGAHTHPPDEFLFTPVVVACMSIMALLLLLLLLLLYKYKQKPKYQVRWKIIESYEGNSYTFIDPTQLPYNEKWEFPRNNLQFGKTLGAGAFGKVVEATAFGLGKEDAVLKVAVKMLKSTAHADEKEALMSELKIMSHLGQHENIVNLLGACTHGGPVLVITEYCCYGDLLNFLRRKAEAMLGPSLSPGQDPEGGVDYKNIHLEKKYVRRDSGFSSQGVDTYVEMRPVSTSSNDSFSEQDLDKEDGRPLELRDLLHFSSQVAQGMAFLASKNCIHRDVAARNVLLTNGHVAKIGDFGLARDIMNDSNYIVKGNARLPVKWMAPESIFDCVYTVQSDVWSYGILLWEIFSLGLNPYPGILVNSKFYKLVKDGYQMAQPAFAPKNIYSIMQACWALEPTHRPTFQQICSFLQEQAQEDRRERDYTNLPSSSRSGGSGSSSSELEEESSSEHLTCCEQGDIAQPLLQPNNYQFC

[4] = target: Dual specificity protein kinase CLK4 (Homo sapiens, UniProt Q9HAZ1); format: functional
Chain of Dual specificity protein kinase CLK4 (Q9HAZ1 whole entry): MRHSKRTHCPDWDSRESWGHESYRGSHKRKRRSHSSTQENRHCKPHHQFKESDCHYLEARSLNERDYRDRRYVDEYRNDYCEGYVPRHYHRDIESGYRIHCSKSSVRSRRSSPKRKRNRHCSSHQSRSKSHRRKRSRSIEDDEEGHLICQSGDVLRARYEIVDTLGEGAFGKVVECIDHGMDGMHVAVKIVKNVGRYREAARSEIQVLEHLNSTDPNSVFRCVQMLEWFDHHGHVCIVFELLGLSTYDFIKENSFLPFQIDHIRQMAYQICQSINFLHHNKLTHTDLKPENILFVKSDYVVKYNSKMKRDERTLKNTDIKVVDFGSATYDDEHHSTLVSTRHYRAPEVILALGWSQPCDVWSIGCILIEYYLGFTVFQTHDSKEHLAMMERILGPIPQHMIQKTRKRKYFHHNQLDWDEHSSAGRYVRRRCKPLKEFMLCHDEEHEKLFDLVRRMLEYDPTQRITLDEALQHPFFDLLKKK

[5] = target: Cell division cycle 7-related protein kinase (Homo sapiens, UniProt O00311); format: functional;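 further: value obtained from a kinome-wide kinase panel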
Chain of Cell division cycle 7-related protein kinase (O00311 whole entry): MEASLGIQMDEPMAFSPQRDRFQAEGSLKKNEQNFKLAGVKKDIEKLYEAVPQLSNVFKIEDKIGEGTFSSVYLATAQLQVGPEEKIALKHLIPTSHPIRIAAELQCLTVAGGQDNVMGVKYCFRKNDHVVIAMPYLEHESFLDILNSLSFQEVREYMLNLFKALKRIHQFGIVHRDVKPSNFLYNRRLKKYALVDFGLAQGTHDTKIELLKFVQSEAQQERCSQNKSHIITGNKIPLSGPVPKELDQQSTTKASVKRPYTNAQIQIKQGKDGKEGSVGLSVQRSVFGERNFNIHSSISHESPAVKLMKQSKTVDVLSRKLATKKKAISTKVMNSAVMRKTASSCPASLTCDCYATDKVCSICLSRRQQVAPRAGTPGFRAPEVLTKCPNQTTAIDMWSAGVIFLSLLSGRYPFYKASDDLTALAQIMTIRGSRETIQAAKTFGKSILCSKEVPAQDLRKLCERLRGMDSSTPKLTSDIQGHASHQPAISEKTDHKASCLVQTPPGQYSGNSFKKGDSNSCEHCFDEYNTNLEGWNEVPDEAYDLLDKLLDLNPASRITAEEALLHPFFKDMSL

[6] = target: ALK tyrosine kinase receptor (Homo sapiens, UniProt Q9UM73); format: functional;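 further: ALK tested as one member of a kinase panel screen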
[7] = target: T1, Apoptotic protease-activating factor 1 (Homo sapiens, UniProt O14727); experiment: SAR analysis of small molecule Activators of Apaf-1 in a Fluorescent assay - set 2.; format: functional; details: read-out: EC50_Mean
T1 sequence (O14727 whole entry): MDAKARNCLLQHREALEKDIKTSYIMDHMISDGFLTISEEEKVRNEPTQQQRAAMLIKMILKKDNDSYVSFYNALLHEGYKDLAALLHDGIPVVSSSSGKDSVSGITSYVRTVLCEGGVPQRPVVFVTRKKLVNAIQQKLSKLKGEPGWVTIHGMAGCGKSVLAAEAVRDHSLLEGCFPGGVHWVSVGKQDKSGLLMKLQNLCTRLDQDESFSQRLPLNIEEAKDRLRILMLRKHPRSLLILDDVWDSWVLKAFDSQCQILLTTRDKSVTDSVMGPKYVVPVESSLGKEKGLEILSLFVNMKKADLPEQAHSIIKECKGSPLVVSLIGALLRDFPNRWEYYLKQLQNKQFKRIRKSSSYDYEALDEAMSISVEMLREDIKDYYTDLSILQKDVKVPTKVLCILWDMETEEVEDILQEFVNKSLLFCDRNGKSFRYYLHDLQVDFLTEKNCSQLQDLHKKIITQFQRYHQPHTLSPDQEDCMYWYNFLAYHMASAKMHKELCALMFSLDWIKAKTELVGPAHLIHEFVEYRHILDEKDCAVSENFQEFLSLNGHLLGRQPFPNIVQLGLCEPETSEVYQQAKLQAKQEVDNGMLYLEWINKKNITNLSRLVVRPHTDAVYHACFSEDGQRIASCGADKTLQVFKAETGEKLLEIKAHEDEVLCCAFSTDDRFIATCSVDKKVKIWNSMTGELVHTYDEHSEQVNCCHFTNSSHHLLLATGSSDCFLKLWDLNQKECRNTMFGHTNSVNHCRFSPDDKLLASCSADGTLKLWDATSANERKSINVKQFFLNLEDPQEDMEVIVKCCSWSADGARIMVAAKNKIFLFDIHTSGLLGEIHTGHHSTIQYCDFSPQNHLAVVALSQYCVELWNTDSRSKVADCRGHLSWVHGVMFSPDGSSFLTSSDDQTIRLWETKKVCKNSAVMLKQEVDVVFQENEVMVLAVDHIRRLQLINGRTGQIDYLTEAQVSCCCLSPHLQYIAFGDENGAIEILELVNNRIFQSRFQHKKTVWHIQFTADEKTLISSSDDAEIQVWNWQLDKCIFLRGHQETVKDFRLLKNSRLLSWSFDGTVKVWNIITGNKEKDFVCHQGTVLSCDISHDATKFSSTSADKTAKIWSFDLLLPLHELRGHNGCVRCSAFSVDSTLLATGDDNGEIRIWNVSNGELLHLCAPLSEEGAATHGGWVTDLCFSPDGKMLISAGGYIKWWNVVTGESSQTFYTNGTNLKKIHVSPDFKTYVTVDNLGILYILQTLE

[8] = SAR analysis of small molecule activators of Apaf-1 using a LZ-Caspase-9/Caspase-3 Fluorescent Selectivity assay - Set 2.; format: functional; details: read-out: EC50_Mean
[9] = target: Protein disulfide-isomerase (Homo sapiens, UniProt P07237); experiment: inhibition of PDI-driven insulin aggregation – biochemical, turbidity, absorbance, cherry-picked samples, dose response (AID 602350); format: functional
Chain of Protein disulfide-isomerase (P07237 whole entry): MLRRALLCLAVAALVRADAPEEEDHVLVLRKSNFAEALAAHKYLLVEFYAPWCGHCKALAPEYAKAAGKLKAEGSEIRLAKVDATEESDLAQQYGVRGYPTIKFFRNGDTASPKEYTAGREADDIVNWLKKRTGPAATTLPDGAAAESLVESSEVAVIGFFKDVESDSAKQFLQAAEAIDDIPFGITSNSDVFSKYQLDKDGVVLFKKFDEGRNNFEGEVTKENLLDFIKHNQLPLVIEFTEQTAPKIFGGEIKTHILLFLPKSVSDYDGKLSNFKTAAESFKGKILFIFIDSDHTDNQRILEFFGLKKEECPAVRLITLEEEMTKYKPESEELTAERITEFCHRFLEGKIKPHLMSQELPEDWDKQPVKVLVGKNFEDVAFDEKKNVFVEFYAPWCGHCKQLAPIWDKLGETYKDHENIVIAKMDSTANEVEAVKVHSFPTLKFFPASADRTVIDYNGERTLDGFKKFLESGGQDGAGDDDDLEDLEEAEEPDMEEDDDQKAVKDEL

[10] = intracellular Trypanosoma cruzi inhibitors in host cells – cell-based, plate reader, cherry-pick samples, set 3, dose response (AID 651818); format: functional;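 further: compounds incubated with infected cells for about four days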
[11] = target: T1, Apoptotic protease-activating factor 1; experiment: SAR analysis of small molecule Inhibitors of Apaf-1 in a Fluorescent assay - set 2.; format: functional; details: read-out: IC50_Mean
[12] = SAR analysis of small molecule inhibitors of Apaf-1 using a LZ-Caspase-9/Caspase-3 Fluorescent Selectivity assay - Set 2.; format: functional; details: read-out: IC50_Mean
[13] = microbe, parasite or virus in culture; format: functional; details: Mycobacterium tuberculosis
[14] = A Cell Based Secondary Assay to Explore Cytotoxicity in THP-1 Cells of Compounds that Modulate Mycobacterium tuberculosis in Media Containing Glycerol versus Media without Glycerol (2).; format: functional
[15] = fluconazole-exposed Candida albicans growth modulators – fluorescence, retest, confirmation (AID 2467); format: functional, cell-based
[16] = target: Sphingosine 1-phosphate receptor 1 (Homo sapiens, UniProt P21453); format: functional;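 further: Tango beta-arrestin reporter U2OS cells stimulated with S1P near its EC80; inhibitor potency meaning antagonism of receptor activation by the natural agonist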
Chain of Sphingosine 1-phosphate receptor 1 (P21453 whole entry): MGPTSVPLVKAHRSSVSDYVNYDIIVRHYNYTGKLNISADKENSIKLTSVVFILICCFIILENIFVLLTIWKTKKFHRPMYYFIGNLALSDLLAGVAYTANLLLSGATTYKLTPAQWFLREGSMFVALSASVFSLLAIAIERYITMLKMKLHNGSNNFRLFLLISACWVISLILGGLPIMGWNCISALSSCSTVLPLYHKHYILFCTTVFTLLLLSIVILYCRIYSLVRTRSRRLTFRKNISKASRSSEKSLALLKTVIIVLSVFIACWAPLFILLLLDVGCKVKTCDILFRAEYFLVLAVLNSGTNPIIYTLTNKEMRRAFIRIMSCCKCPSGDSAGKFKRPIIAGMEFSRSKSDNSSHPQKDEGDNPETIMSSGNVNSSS

[17] = reduction of Shn3 3'UTR-driven luciferase in osteoblasts – cell-based, Clone20 osteoblasts, firefly luciferase, cherry-picked, dose response (AID 624132); format: functional;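 further: firefly luciferase luminescence from reporter carrying the Shn3 3'UTR in osteoblasts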
[18] = loss of viability in HepG2 cells – cell-based, CellTiter-Glo, cherry-picked, cytotoxicity control for Shn3 inhibitor project, dose response (AID 624134); format: functional
[19] = A Cell Based Secondary Assay to Explore Cytotoxicity in HepG2 Cells of Compounds that Modulate Mycobacterium tuberculosis in Media Containing Glycerol versus Media without Glycerol (2).; format: functional
[20] = target: T2, Sphingosine 1-phosphate receptor 4 (Homo sapiens, UniProt O95977); experiment: Fluorescence dose response cell-based high throughput screening assay for antagonists of the Sphingosine 1-Phosphate Receptor 4 (S1P4). [Related pubchem assays: 1524 (Confirmation in triplicates.), 1510 (Primary screen.)]; format: functional
T2 sequence (O95977 whole entry): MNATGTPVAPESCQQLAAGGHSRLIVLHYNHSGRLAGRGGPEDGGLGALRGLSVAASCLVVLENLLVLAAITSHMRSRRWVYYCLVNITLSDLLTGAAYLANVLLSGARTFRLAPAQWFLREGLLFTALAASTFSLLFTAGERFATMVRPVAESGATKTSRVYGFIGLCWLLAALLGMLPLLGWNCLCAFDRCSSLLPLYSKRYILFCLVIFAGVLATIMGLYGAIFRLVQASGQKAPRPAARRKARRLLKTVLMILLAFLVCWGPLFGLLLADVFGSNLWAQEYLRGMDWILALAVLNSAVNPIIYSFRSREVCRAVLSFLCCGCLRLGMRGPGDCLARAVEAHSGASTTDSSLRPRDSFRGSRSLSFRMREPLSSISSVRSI

[21] = EF1alpha-driven Renilla reporter with control 3'UTR suppression – Clone20-Shn3RL cells, dual-Glo, cherry-pick, set 2, counter-screen for Shn3 3'UTR targeting project, dose response (AID 720724); format: functional, cell-based; details: Dual-Go Shn3RL
[22] = Shn3 transcript knock-down in Clone20 cells – cell-based, qPCR, cherry-pick, dose response (AID 743415); format: functional
[23] = NIH-3T3 fibroblast cytotoxicity, dose response, cytotoxicity control, cell-based, fluorescence, Alamar Blue, secondary assay (AID 2327); format: functional;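 further: NIH-3T3 mouse fibroblasts cultured with fluconazole at 8 µg/mL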
Protein RecA = target: T3, Protein RecA (Mycobacterium tuberculosis, UniProt P9WHJ3); experiment: Fluorescence Cell-Free Homogeneous Dose Retest to Identify Inhibitors of RecA-Intein Splicing Activity. [Related pubchem assays (depositor defined):AID2097, AID2223, AID489010, AID492950]; format: functional
T3 sequence (P9WHJ3 whole entry): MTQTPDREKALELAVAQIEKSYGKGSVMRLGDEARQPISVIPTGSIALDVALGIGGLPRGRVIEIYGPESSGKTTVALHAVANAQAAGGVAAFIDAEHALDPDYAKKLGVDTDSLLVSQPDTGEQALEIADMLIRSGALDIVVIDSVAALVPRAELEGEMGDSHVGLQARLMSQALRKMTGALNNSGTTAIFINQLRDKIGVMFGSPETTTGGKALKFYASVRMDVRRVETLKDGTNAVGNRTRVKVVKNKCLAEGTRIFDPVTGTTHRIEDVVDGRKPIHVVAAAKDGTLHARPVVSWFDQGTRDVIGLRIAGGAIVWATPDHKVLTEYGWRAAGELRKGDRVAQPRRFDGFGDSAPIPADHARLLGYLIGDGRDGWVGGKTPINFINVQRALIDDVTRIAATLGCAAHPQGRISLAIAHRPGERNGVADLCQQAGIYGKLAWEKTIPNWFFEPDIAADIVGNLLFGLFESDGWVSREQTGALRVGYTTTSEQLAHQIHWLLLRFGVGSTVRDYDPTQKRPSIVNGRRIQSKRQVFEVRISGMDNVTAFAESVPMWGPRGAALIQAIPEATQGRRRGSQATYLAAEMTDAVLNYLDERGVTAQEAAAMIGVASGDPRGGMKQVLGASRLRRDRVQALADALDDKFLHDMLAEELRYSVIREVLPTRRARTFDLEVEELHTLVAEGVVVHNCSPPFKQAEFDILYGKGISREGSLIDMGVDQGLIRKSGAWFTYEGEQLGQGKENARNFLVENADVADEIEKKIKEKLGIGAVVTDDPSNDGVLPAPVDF

[24] = Trypanosoma cruzi growth suppression in host cells – NIH3T3 host cells, beta-gal luminescence, confirmation (AID 2044); format: functional, cell-based;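 further: intracellular parasites grown in NIH/3T3 mouse fibroblasts as host cells; luminescent beta-galactosidase reporter signal from transgenic T. cruzi replicating inside host cells; inhibitors lower the luminescence signal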
[25] = target: T4, Replicative DNA helicase DnaB (Mycobacterium tuberculosis, UniProt P9WMR3); experiment: DnaB intein splicing inhibitors, dose response, biochemical, cell-free fluorescence (AID 449749); format: functional
T4 sequence (P9WMR3 whole entry): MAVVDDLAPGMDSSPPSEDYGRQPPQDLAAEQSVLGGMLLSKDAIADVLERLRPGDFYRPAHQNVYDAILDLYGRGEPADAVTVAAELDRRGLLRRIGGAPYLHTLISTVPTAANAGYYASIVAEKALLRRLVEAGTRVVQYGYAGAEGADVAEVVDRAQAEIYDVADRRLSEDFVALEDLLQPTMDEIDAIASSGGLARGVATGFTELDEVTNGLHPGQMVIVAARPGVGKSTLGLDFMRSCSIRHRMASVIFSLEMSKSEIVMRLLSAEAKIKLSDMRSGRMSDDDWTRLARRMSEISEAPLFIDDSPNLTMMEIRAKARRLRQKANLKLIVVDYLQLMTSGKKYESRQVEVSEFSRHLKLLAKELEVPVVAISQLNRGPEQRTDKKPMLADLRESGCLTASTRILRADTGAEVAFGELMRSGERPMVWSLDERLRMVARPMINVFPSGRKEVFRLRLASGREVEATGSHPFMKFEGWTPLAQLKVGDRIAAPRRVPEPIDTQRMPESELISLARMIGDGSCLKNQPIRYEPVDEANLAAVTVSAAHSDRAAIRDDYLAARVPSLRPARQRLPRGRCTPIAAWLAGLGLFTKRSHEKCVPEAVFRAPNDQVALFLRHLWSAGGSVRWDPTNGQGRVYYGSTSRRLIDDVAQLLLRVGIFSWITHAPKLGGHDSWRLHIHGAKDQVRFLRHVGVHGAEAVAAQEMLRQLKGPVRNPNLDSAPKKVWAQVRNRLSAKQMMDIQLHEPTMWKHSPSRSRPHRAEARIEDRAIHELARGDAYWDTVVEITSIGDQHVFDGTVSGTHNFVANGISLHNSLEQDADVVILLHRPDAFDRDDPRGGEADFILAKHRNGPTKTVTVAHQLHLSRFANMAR

[26] = Vero cell cytotoxicity, cytotoxicity control for M. tuberculosis inhibitor project, purified and synthesized samples, set 3 (AID 504684); format: functional
Paired box protein Pax-8 = Paired box protein Pax-8 (Homo sapiens, UniProt Q06710); experiment: PAX8 transcriptional activity inhibition in RMG-I – RMG-I cells, luciferase, cherry-pick, dose response (AID 687027); format: functional, cell-based;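 further: luciferase reporter driven by Pax8 target thyroperoxidase promoter measured by SteadyGlo luminescence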
[27] = Shn3 3'UTR reporter signal decrease – cell-based, Clone20 osteoblasts, firefly luciferase, cherry-pick, set 2, Schnurri-3 inhibitor project, dose response (AID 720490); format: functional;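 further: actives lower the luminescence signal as inhibitors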
[28] = Fluorescence-based cell-based high throughput dose response assay for inhibitors of the interaction of nucleotide-binding oligomerization domain containing 2 (NOD2) and the receptor-interacting serine-threonine kinase 2 (RIPK2).; format: functional; details: Homo sapiens
[29] = NIH3T3 cell viability loss – ATP luminescence, mouse fibroblasts, counter-screen, dose response (AID 2010); format: functional, cell-based;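 further: cells exposed to compound for about 90 hours before reading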
[30] = non-specific 3'UTR reporter inhibition in Clone20-Shn3RL – cell-based, Renilla luciferase, cherry-picked, counter-screen for Shn3 inhibitor project, dose response (AID 624133); format: functional

Chain of Aurora kinase B (Q96GD4 whole entry): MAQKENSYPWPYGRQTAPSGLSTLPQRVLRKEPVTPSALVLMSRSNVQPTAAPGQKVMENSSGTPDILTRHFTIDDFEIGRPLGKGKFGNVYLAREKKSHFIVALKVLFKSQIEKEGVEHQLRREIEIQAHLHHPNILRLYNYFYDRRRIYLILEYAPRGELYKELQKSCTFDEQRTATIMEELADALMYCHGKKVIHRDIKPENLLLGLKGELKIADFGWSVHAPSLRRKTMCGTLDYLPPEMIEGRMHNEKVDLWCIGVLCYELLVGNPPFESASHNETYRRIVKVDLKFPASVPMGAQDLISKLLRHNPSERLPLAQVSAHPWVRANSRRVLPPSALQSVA
Chain of Aurora kinase A (O14965 whole entry): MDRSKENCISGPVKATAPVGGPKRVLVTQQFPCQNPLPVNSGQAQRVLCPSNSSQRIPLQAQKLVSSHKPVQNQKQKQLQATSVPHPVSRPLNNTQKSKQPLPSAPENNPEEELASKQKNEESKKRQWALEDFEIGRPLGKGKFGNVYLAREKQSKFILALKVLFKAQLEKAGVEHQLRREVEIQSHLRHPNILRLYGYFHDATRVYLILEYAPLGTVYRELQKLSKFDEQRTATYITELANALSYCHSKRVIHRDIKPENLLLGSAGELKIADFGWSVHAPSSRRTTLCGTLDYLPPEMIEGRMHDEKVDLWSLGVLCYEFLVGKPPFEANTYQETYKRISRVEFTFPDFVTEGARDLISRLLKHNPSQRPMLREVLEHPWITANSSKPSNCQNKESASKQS

CS(=O)(=O)Nc1ccc2c(c1)C(=NO)c1ccccc1-2
Ki (Aurora kinase A): 0.398 µM (active)
Ki (Aurora kinase B): 0.0398 µM (active)
Ki [1]: 0.794 µM (active)

N#Cc1cnn2c(-c3ccccc3)ccnc12
Ki [2]: > 100 µM (inactive)
Ki [3]: > 100 µM (inactive)
Ki [4]: 10 µM (active)
Ki [1]: > 100 µM (inactive)

OCCc1ccc(Nc2ncnc3[nH]cc(-c4ccccc4)c23)cc1
Ki [5]: 0.0794 µM (active)
Ki [6]: 3.98 µM (active)

O=C(O)C1CC(c2c(F)cccc2Cl)=NO1 (stereo not given)
EC50 [7]: > 100 µM (inactive)
EC50 [8]: > 100 µM (inactive)

C[C@H](CO)N1C[C@H](C)[C@H](CN(C)S(=O)(=O)c2ccc(F)cc2)Oc2ccc(NC(=O)Cc3cn(C)c4ccccc34)cc2C1=O
AC50 [9]: 19.5 µM (active)
AC50 [10]: 5.29 µM (active)

O=C1C(=O)N(Cc2ccc(Cl)c(Cl)c2)c2cc(Cl)ccc21
IC50 [11]: 53.1 µM (active)
IC50 [12]: 43.4 µM (active)

CCOC(=O)c1ccc(NC(=O)Cn2ncc(Cl)c(Cl)c2=O)cc1
CC50 [13]: 6.68 µM (active)
CC50 [14]: 1.62 µM (active)
EC50 [15]: 0.582 µM (active)
IC50 [16]: 9.77 µM (active)
AC50 [17]: 2.32 µM (active)
AC50 [18]: 46 µM (active)
CC50 [19]: 8.45 µM (active)
IC50 [20]: 1.47 µM (active)
AC50 [21]: 5.4 µM (active)
AC50 [22]: 3.72 µM (active)
EC50 [23]: 2.69 µM (inconclusive)
EC50 (Protein RecA): 3.77 µM (active)
EC50 [24]: 2.06 µM (active)
AC50 [25]: 14.1 µM (active)
CC50 [26]: 3.21 µM (active)
AC50 (Paired box protein Pax-8): 6.64 µM (active)
AC50 [27]: 3.69 µM (active)
IC50 [28]: 1.77 µM (active)
EC50 [29]: 1.96 µM (active)
AC50 [30]: 12.1 µM (active)
